# Assay results from patent publication US12612412B2, “Antiviral heterocyclic compounds” (Enanta Pharmaceuticals, Inc., priority 2021, dated 2026).
# Test system: genotype A, "Long" strain RSV
# Test: RSV-A assay (CPE protection in Hep-2 cells, ATPlite readout)
# Type: cell-based, Human respiratory syncytial virus (HRSV)
# Conditions: human respiratory syncytial virus, RSV-A Long strain, MOI 0.1, CPE protection, read-out: Human RSV-A (“Long”) EC50
# Summary of the method: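 Compound effect on RSV-induced CPE: Hep-2 monolayers, MOI 0.1, duplicate 2-fold titrations, 5-day culture in 10% FBS DMEM. Readout is ATP-based luminescence, normalised to virus-only and no-virus controls, giving EC50.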
row,Structure (SMILES),EC50 [nM]
1,COc1cc(C(=O)NC[C@](O)(c2cc3c(c(-c4cccc(Cl)c4Cl)n2)OC[C@]3(C)C(N)=O)C2CC2)cc2cn(C3CC3)nc12 [Example 1286],< 200
2,COc1cc(C(=O)NC[C@@](O)(c2cc3c(c(-c4cc(Br)c(F)cc4F)n2)OC[C@]3(C)C(N)=O)C(F)(F)F)cc2cn(C3CC3)nc12 [Example 1222],< 200
3,Cc1cnc2c(OC(F)F)cc(C(=O)NC[C@](O)(c3cc4c(c(-c5ccc(C(F)(F)F)cc5)n3)OC[C@]4(C)C(N)=O)C3CC3)cc2c1 [Example 1209],< 200
4,C[C@]1(C(N)=O)COc2c1cc([C@@](O)(CNC(=O)c1ccc3nc(C4CC4)sc3c1)C1CC1)nc2-c1ccc2c(c1)OC(F)(F)O2 [Example 1292],> 200
5,COc1cc(C(=O)NC[C@](O)(c2cc3c(c(-c4cc(F)cc(F)c4Cl)n2)OC[C@]3(C)C(N)=O)C(F)(F)F)cc2cn(C3CC3)nc12 [Example 1261],< 200
6,COc1cc(C(=O)NC[C@](O)(c2cc3c(c(-c4ccc(Cl)c(Cl)c4F)n2)OC[C@]3(C)C(N)=O)C(F)(F)F)cc2cn(C3CC3)nc12 [Example 1257],< 200
7,Cc1cnc2c(OC(F)F)cc(C(=O)NC[C@](O)(c3cc4c(c(-c5cccc(Br)c5F)n3)OC[C@]4(C)C(N)=O)C3CC3)cc2c1 [Example 1206],< 200
8,COc1cc(C(=O)NC[C@](O)(c2cc3c(c(-c4cc(Cl)ccc4Cl)n2)OC[C@]3(C)C(N)=O)C2CC2)cc2cn(C3CC3)nc12 [Example 1280],< 200
9,COc1cc(C(=O)NC[C@](O)(c2cc3c(c(-c4cc(F)ccc4F)n2)OC[C@]3(C)C(N)=O)C2CC2)cc2cn(C3CC3)nc12 [Example 1282],< 200
10,COc1cc(C(=O)NC[C@](O)(c2cc3c(c(-c4ccc5c(c4)OC(F)(F)O5)n2)OC[C@]3(C)C(N)=O)C2CC2)cc2cc(Br)c(C)nc12 [Example 1130],< 200
11,COc1cc(C(=O)NC[C@](O)(c2cc3c(c(-c4ccc5c(c4)OC(F)(F)O5)n2)OC[C@]3(C)C(N)=O)C(F)(F)F)cc2cc(C)nnc12 [Example 1110],< 200
12,COc1cc(C(=O)NC[C@@](O)(c2cc3c(c(C4=CCN(C(=O)OC(C)(C)C)CC4)n2)OC[C@]3(C)C(N)=O)C(F)(F)F)cc2cn(C3CC3)nc12 [Example 1239],> 200
13,COc1ccc(-c2nc([C@@](O)(CNC(=O)c3cc(OC)c4nn(C5CC5)cc4c3)C(F)(F)F)cc3c2OC[C@]3(C)C(N)=O)cc1OC [Example 906],< 200

# Same assay, conditions: human respiratory syncytial virus, genotype A “Long” strain RSV, MOI 0.1, CPE protection, read-out: Human RSV-A (“Long”)
row,Structure (SMILES),EC50 [nM]
1,C[C@]1(C(N)=O)COc2c1cc([C@@](O)(CNC(=O)c1cnn(-c3ccccc3F)c1)C(F)(F)F)nc2-c1ccc(F)cc1 [Example 454],< 200
2,C[C@]1(C(N)=O)COc2c1cc([C@@](O)(CNC(=O)c1cn(-c3ccccc3)nc1-c1ccccc1)C(F)(F)F)nc2-c1ccc(F)cc1 [Example 443],> 200
3,C[C@]1(C(N)=O)COc2c1cc([C@@](O)(CNC(=O)c1cc(O)c3[nH]ncc3c1)C(F)(F)F)nc2-c1ccc(F)cc1 [Example 111],> 200
4,C[C@]1(C(N)=O)COc2c1cc([C@@](O)(CNC(=O)c1c[nH]c3c(Cl)cccc13)C(F)(F)F)nc2-c1ccc(F)cc1 [Example 350],> 200
5,Cc1cc2nc(C(=O)NC[C@](O)(c3cc4c(c(-c5ccc(F)cc5)n3)OC[C@]4(C)C(N)=O)C(F)(F)F)cc(C)n2n1 [Example 181],> 200
6,C[C@]1(C(N)=O)COc2c1cc([C@@](O)(CNC(=O)c1c[nH]c3ncc(F)cc13)C(F)(F)F)nc2-c1ccc(F)cc1 [Example 353],> 200
7,CCS(=O)(=O)c1ccc(-c2nc([C@@](O)(CNC(=O)c3cc(F)c4nc(N)sc4c3)C(F)(F)F)cc3c2OC[C@]3(C)C(N)=O)cc1 [Example 311],> 200
8,C[C@]1(C(N)=O)COc2c1cc([C@@](O)(CNC(=O)c1cc3[nH]ccc3cc1F)C(F)(F)F)nc2-c1ccc(F)cc1 [Example 387],> 200
9,C[C@]1(C(N)=O)COc2c1cc([C@@](O)(CNC(=O)c1cnc3ccc(F)cn13)C(F)(F)F)nc2-c1ccc(F)cc1 [Example 367],> 200
10,COc1cc2cc(C(=O)NC[C@](O)(c3cc4c(c(-c5ccc(F)cc5)n3)OC[C@]4(C)C(N)=O)C(F)(F)F)ccc2nc1Cl [Example 325],< 200
11,C[C@]1(C(N)=O)COc2c1cc([C@@](O)(CNC(=O)c1cc3cc(F)ccc3[nH]1)C(F)(F)F)nc2-c1ccc(F)cc1 [Example 422],> 200
12,COc1cc(C(=O)NC[C@](O)(c2cc3c(c(-c4ccc(F)cc4)n2)OCC3(C(N)=O)C(F)F)C(F)(F)F)cc2cc(C(F)(F)F)cnc12 (some centres unmarked) [Example 257],< 200
13,COc1cc(C(=O)NC[C@](O)(c2cc3c(c(-c4ccc(F)cc4)n2)OC[C@]3(CF)C(N)=O)C(F)(F)F)ccc1OC1CC1 [Example 299],< 200
14,COc1ccccc1-c1cc(C(=O)NC[C@](O)(c2cc3c(c(-c4ccc(F)cc4)n2)OC[C@]3(C)C(N)=O)C(F)(F)F)n[nH]1 [Example 207],> 200
15,COc1cc(C(=O)NC[C@](O)(c2cc3c(c(-c4ccc(F)cc4)n2)OC[C@]3(CF)C(N)=O)C(F)(F)F)cc2cc(Cl)c(C)nc12 [Example 285],< 200
16,NC(=O)[C@]1(C2CC2)COc2c1cc([C@@](O)(CNC(=O)c1cc(F)c3nc(N)sc3c1)C(F)(F)F)nc2-c1ccc(F)cc1 [Example 262],> 200
17,C[C@]1(C(N)=O)COc2c1cc([C@@](O)(CNC(=O)c1ccc(C(F)F)nc1)C(F)(F)F)nc2-c1ccc(F)cc1 [Example 408],> 200
18,CC(C)Oc1ccc2nc(C(=O)NC[C@](O)(c3cc4c(c(-c5ccc(F)cc5)n3)OC[C@]4(C)C(N)=O)C(F)(F)F)cn2c1 [Example 812],> 200
19,Cc1ncc(C(=O)NC[C@](O)(c2cc3c(c(-c4ccc(F)cc4)n2)OC[C@]3(C)C(N)=O)C(F)(F)F)s1 [Example 431],> 200
20,C[C@]1(C(N)=O)COc2c1cc([C@@](O)(CNC(=O)c1ccc3oc(N)nc3c1)C(F)(F)F)nc2-c1ccc(F)cc1 [Example 191],< 200
21,COc1cc(C(=O)NC[C@](O)(c2cc3c(c(-c4ccc(F)cc4)n2)OC[C@]3(CF)C(N)=O)C(F)(F)F)cc2cccnc12 [Example 283],< 200
22,Cc1cncnc1C(=O)NC[C@](O)(c1cc2c(c(-c3ccc(F)cc3)n1)OC[C@]2(C)C(N)=O)C(F)(F)F [Example 410],> 200

row,Structure (SMILES),EC50 [nM]
1,COc1cc(C(=O)NC[C@](O)(c2cc3c(c(-c4ccc(F)cc4)n2)OC[C@]3(C)C(N)=O)C(F)(F)F)cc2cc(C(=O)O)c(C)nc12 [Example 76],> 200
2,Cc1cc(C(=O)NC[C@](O)(c2cc3c(c(-c4ccc(F)cc4)n2)OC[C@]3(C)C(N)=O)C(F)(F)F)c2ccccc2n1 [Example 432],> 200
3,C[C@]1(C(N)=O)COc2c1cc([C@@](O)(CNC(=O)c1cc(Cl)c3cnn(C4CC4)c3c1)C(F)(F)F)nc2-c1ccc(F)cc1 [Example 145],> 200
4,C[C@]1(C(N)=O)COc2c1cc([C@@](O)(CNC(=O)c1cc3c(OC(F)F)cccc3[nH]1)C(F)(F)F)nc2-c1ccc(F)cc1 [Example 211],< 200
5,C[C@@H](O)COc1ccc(C(=O)NC[C@](O)(c2cc3c(c(-c4ccc(F)cc4)n2)OC[C@]3(C)C(N)=O)C2CC2)cc1OC1CC1 [Example 317],< 200
6,C[C@@H](O)COc1ccc(C(=O)NC[C@](O)(c2cc3c(c(-c4ccc(F)cc4)n2)OC[C@]3(CF)C(N)=O)C(F)(F)F)cc1OC1CC1 [Example 294],< 200
7,CC(C)c1csc(C(=O)NC[C@](O)(c2cc3c(c(-c4ccc(F)cc4)n2)OC[C@]3(C)C(N)=O)C(F)(F)F)n1 [Example 437],> 200
8,CC[C@]1(C(N)=O)COc2c1cc([C@@](O)(CNC(=O)c1cc(OC)c3nc(C4CC4)cn3c1)C(F)(F)F)nc2-c1ccc(F)cc1 [Example 236],< 200
9,C[C@]1(C(N)=O)COc2c1cc([C@@](O)(CNC(=O)c1ccnc3cc[nH]c13)C(F)(F)F)nc2-c1ccc2c(c1)OC(F)(F)O2 [Example 701],< 200
10,Cc1cc2cc(C(=O)NC[C@](O)(c3cc4c(c(-c5ccc(F)cc5)n3)OC[C@]4(C)C(N)=O)C(F)(F)F)ccc2[nH]1 [Example 171],< 200
11,CC[C@@]1(C(N)=O)COc2c1cc([C@@](O)(CNC(=O)c1cc(OC)c3nn(C(F)F)cc3c1)C(F)(F)F)nc2-c1ccc(F)cc1 [Example 243],> 200
12,C[C@]1(C(N)=O)COc2c1cc([C@@](O)(CNC(=O)c1cn3ccccc3n1)C(F)(F)F)nc2-c1ccc(F)cc1 [Example 413],> 200
13,CCn1ncc2cc(C(=O)NC[C@](O)(c3cc4c(c(-c5ccc(F)cc5)n3)OC[C@]4(C)C(N)=O)C(F)(F)F)cc(Cl)c21 [Example 172],> 200
14,C[C@]1(C(N)=O)COc2c1cc([C@@](O)(CNC(=O)c1ccc3ccsc3c1)C(F)(F)F)nc2-c1ccc(F)cc1 [Example 346],> 200
15,Cc1nc(-c2ccccc2F)sc1C(=O)NC[C@](O)(c1cc2c(c(-c3ccc(F)cc3)n1)OC[C@]2(C)C(N)=O)C(F)(F)F [Example 485],> 200
16,Cc1ccnnc1C(=O)NC[C@](O)(c1cc2c(c(-c3ccc(F)cc3)n1)OC[C@]2(C)C(N)=O)C(F)(F)F [Example 416],> 200
17,C[C@]1(C(N)=O)COc2c1cc([C@@](O)(CNC(=O)c1c[nH]c3cc(Cl)ccc13)C(F)(F)F)nc2-c1ccc(F)cc1 [Example 345],> 200
18,C[C@]1(C(N)=O)COc2c1cc([C@@](O)(CNC(=O)c1cn3cc(OC(F)(F)F)ccc3n1)C(F)(F)F)nc2-c1ccc(F)cc1 [Example 814],> 200
19,C[C@]1(C(N)=O)COc2c1cc([C@@](O)(CNC(=O)c1cncs1)C(F)(F)F)nc2-c1ccc(F)cc1 [Example 389],> 200
20,C[C@]1(C(N)=O)COc2c1cc([C@@](O)(CNC(=O)c1cc3ccccc3o1)C(F)(F)F)nc2-c1ccc(F)cc1 [Example 378],> 200
21,Cc1ccc2cc(C(=O)NC[C@](O)(c3cc4c(c(-c5ccc(F)c(Cl)c5)n3)OC[C@]4(C)C(N)=O)C(F)(F)F)cc(N3CCCC3=O)c2n1 [Example 39],> 200
